According to PubChem BioAssay AID2060619 (Molecular Pharmacology Branch, DTP, NCI, 2025):
Several values for one entry are separate records, joined by “and”; a condition that tells them apart may be missing. Identical values can stand only once.

Test system: 323965-272-R-J2-PDC complex spheroid viability
Test: Anticancer human tumor 323965-272-R-J2-PDC patient-derived pancreatic carcinoma cell line growth inhibition [CLK]
Conditions: for viability, T/C: stronger effect = lower value
In short: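 Patient-derived tumor cells grown as complex spheroids with HUVEC endothelial cells and mesenchymal stem cells, treated with drug combinations. Concentrations descend in half-log steps from near clinical Cmax, or from 10 microM if Cmax unknown.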

[1] = curve of first compound, second compound 0.0316 µM
[2] = curve of first compound, second compound 0.1 µM
[3] = curve of first compound, second compound 0.316 µM
[4] = curve of first compound, second compound 1 µM
[5] = curve of first compound, second compound 3.16 µM
[6] = curve of first compound, second compound 10 µM
[7] = second compound 0.0316 µM, first compound 0.00949 µM
[8] = second compound 0.0316 µM, first compound 0.03 µM
[9] = second compound 0.0316 µM, first compound 0.0949 µM
[10] = second compound 0.0316 µM, first compound 0.3 µM
[11] = second compound 0.1 µM, first compound 0.00949 µM
[12] = second compound 0.1 µM, first compound 0.03 µM
[13] = second compound 0.1 µM, first compound 0.0949 µM
[14] = second compound 0.1 µM, first compound 0.3 µM
[15] = second compound 0.316 µM, first compound 0.00949 µM
[16] = second compound 0.316 µM, first compound 0.03 µM
[17] = second compound 0.316 µM, first compound 0.0949 µM
[18] = second compound 0.316 µM, first compound 0.3 µM
[19] = second compound 1 µM, first compound 0.00949 µM
[20] = second compound 1 µM, first compound 0.03 µM
[21] = second compound 1 µM, first compound 0.0949 µM
[22] = second compound 1 µM, first compound 0.3 µM
[23] = second compound 3.16 µM, first compound 0.00949 µM
[24] = second compound 3.16 µM, first compound 0.03 µM
[25] = second compound 3.16 µM, first compound 0.0949 µM
[26] = second compound 3.16 µM, first compound 0.3 µM
[27] = second compound 10 µM, first compound 0.00949 µM
[28] = second compound 10 µM, first compound 0.03 µM
[29] = second compound 10 µM, first compound 0.0949 µM
[30] = second compound 10 µM, first compound 0.3 µM
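Note: spheroids exposed to agents for seven days before readout.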
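Throughout, for viability, T/C: percent of DMSO vehicle control wells so 100% = untreated growth.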

SMILES: CC(C)CC(NC(=O)C(Cc1ccccc1)NC(=O)c1cnccn1)B(O)O (stereo not given) + CNC(=O)c1ccc(Nc2nc(OC3CCCC3)c3c(-c4ccc5nc(C)oc5c4)c[nH]c3n2)c(OC)c1
- IC50 [1]: 3.5 nM
- IC50 [2]: 3.84 nM
- IC50 [3]: 3.11 nM
- IC50 [4]: 1.72 nM
- IC50 [5]: < 0.949 nM
- IC50 [6]: 1.02 nM
- viability, T/C (second compound 0.0316 µM, first compound 0.000949 µM): 144%
- viability, T/C (second compound 0.0316 µM, first compound 0.003 µM): 57.1%
- viability, T/C [7]: 3.74%
- viability, T/C [8]: 0.63%
- viability, T/C [9]: 0.4%
- viability, T/C [10]: 1.5%
- viability, T/C (second compound 0.1 µM, first compound 0.000949 µM): 97.1%
- viability, T/C (second compound 0.1 µM, first compound 0.003 µM): 62.7%
- viability, T/C [11]: 3.57%
- viability, T/C [12]: 0.66%
- viability, T/C [13]: 0.72%
- viability, T/C [14]: 3.02%
- viability, T/C (second compound 0.316 µM, first compound 0.000949 µM): 77.6%
- viability, T/C (second compound 0.316 µM, first compound 0.003 µM): 51.5%
- viability, T/C [15]: 3.56%
- viability, T/C [16]: 0.65%
- viability, T/C [17]: 0.61%
- viability, T/C [18]: 0.43%
- viability, T/C (second compound 1 µM, first compound 0.000949 µM): 62.9%
- viability, T/C (second compound 1 µM, first compound 0.003 µM): 38%
- viability, T/C [19]: 3.86%
- viability, T/C [20]: 0.86%
- viability, T/C [21]: 1.19%
- viability, T/C [22]: 1.58%
- viability, T/C (second compound 3.16 µM, first compound 0.000949 µM): 48.7%
- viability, T/C (second compound 3.16 µM, first compound 0.003 µM): 28.7%
- viability, T/C [23]: 1.87%
- viability, T/C [24]: 0.28%
- viability, T/C [25]: 0.73%
- viability, T/C [26]: 1.18%
- viability, T/C (second compound 10 µM, first compound 0.000949 µM): 51.6%
- viability, T/C (second compound 10 µM, first compound 0.003 µM): 24.5%
- viability, T/C [27]: 1.13%
- viability, T/C [28]: 0.33%
- viability, T/C [29]: 0.86%
- viability, T/C [30]: 2.07%

SMILES: C=CC(=O)Nc1cc(Nc2nccc(-c3cn(C)c4ccccc34)n2)c(OC)cc1N(C)CCN(C)C
- viability, T/C (compound 0.000949 µM): 103% and 92.1%
- viability, T/C (compound 0.003 µM): 80.7% and 91.7%
- viability, T/C (compound 0.00949 µM): 97.6% and 86%
- viability, T/C (compound 0.03 µM): 90.5% and 83.2%
- viability, T/C (compound 0.0949 µM): 81.3% and 78.3%
- viability, T/C (compound 0.3 µM): 87.5% and 75.6%
- IC50 (curve of compound): > 300 nM

SMILES: NC(=O)C(=Cn1cnc(-c2cc(C(F)(F)F)cc(C(F)(F)F)c2)n1)c1cncnc1
- viability, T/C (compound 0.00949 µM): 97.4% and 105%
- viability, T/C (compound 0.03 µM): 109% and 91.9%
- viability, T/C (compound 0.0949 µM): 74.2% and 75.9%
- viability, T/C (compound 0.3 µM): 64.3% and 66.8%
- viability, T/C (compound 0.949 µM): 69.2% and 61.7%
- viability, T/C (compound 3 µM): 38.3% and 28.5%
- IC50 (curve of compound): 1690 nM and 1060 nM

SMILES: CCc1c2c(nc3ccc(O)cc13)-c1cc3c(c(=O)n1C2)COC(=O)[C@]3(O)CC + CN1CCN(c2cc(C(=O)Nc3cc4cc(-c5cnn(C)c5)ccc4cn3)ccn2)CC1
- IC50 [1]: 7.63 nM
- IC50 [2]: < 3.16 nM
- IC50 [3]: < 3.16 nM
- IC50 [4]: < 3.16 nM
- IC50 [5]: < 3.16 nM
- IC50 [6]: < 3.16 nM
- viability, T/C (second compound 0.0316 µM, first compound 0.00316 µM): 77.2%
- viability, T/C (second compound 0.0316 µM, first compound 0.01 µM): 41.7%
- viability, T/C (second compound 0.0316 µM, first compound 0.0316 µM): 28.6%
- viability, T/C (second compound 0.0316 µM, first compound 0.1 µM): 27.2%
- viability, T/C (second compound 0.0316 µM, first compound 0.316 µM): 25.7%
- viability, T/C (second compound 0.0316 µM, first compound 1 µM): 24.1%
- viability, T/C (second compound 0.1 µM, first compound 0.00316 µM): 42.6%
- viability, T/C (second compound 0.1 µM, first compound 0.01 µM): 33.3%
- viability, T/C (second compound 0.1 µM, first compound 0.0316 µM): 26%
- viability, T/C (second compound 0.1 µM, first compound 0.1 µM): 24.7%
- viability, T/C (second compound 0.1 µM, first compound 0.316 µM): 20.1%
- viability, T/C (second compound 0.1 µM, first compound 1 µM): 19.7%
- viability, T/C (second compound 0.316 µM, first compound 0.00316 µM): 22.2%
- viability, T/C (second compound 0.316 µM, first compound 0.01 µM): 23.1%
- viability, T/C (second compound 0.316 µM, first compound 0.0316 µM): 18.6%
- viability, T/C (second compound 0.316 µM, first compound 0.1 µM): 20.3%
- viability, T/C (second compound 0.316 µM, first compound 0.316 µM): 19.1%
- viability, T/C (second compound 0.316 µM, first compound 1 µM): 6.86%
- viability, T/C (second compound 1 µM, first compound 0.00316 µM): 3.79%
- viability, T/C (second compound 1 µM, first compound 0.01 µM): 3.36%
- viability, T/C (second compound 1 µM, first compound 0.0316 µM): 2.56%
- viability, T/C (second compound 1 µM, first compound 0.1 µM): 2.23%
- viability, T/C (second compound 1 µM, first compound 0.316 µM): 1.14%
- viability, T/C (second compound 1 µM, first compound 1 µM): 0.61%
- viability, T/C (second compound 3.16 µM, first compound 0.00316 µM): 4.21%
- viability, T/C (second compound 3.16 µM, first compound 0.01 µM): 3.48%
- viability, T/C (second compound 3.16 µM, first compound 0.0316 µM): 3.05%
- viability, T/C (second compound 3.16 µM, first compound 0.1 µM): 1.79%
- viability, T/C (second compound 3.16 µM, first compound 0.316 µM): 1.1%
- viability, T/C (second compound 3.16 µM, first compound 1 µM): 0.61%
- viability, T/C (second compound 10 µM, first compound 0.00316 µM): 4.27%
- viability, T/C (second compound 10 µM, first compound 0.01 µM): 6.63%
- viability, T/C (second compound 10 µM, first compound 0.0316 µM): 2.33%
- viability, T/C (second compound 10 µM, first compound 0.1 µM): 1.69%
- viability, T/C (second compound 10 µM, first compound 0.316 µM): 0.96%
- viability, T/C (second compound 10 µM, first compound 1 µM): 0.59%

SMILES: NC(=O)C(=Cn1cnc(-c2cc(C(F)(F)F)cc(C(F)(F)F)c2)n1)c1cncnc1 + CN1CCN(c2cc(C(=O)Nc3cc4cc(-c5cnn(C)c5)ccc4cn3)ccn2)CC1
- IC50 [1]: 907 nM
- IC50 [2]: 365 nM
- IC50 [3]: < 9.49 nM
- IC50 [4]: < 9.49 nM
- IC50 [5]: < 9.49 nM
- IC50 [6]: < 9.49 nM
- viability, T/C [7]: 99.5%
- viability, T/C [8]: 100%
- viability, T/C [9]: 71.5%
- viability, T/C [10]: 58.4%
- viability, T/C (second compound 0.0316 µM, first compound 0.949 µM): 59.3%
- viability, T/C (second compound 0.0316 µM, first compound 3 µM): 30%
- viability, T/C [11]: 67.1%
- viability, T/C [12]: 64.7%
- viability, T/C [13]: 60.4%
- viability, T/C [14]: 52.1%
- viability, T/C (second compound 0.1 µM, first compound 0.949 µM): 38.6%
- viability, T/C (second compound 0.1 µM, first compound 3 µM): 17%
- viability, T/C [15]: 23.6%
- viability, T/C [16]: 24%
- viability, T/C [17]: 20.3%
- viability, T/C [18]: 12.3%
- viability, T/C (second compound 0.316 µM, first compound 0.949 µM): 5.84%
- viability, T/C (second compound 0.316 µM, first compound 3 µM): 1.04%
- viability, T/C [19]: 2.31%
- viability, T/C [20]: 2.24%
- viability, T/C [21]: 4.13%
- viability, T/C [22]: 2.36%
- viability, T/C (second compound 1 µM, first compound 0.949 µM): 1.39%
- viability, T/C (second compound 1 µM, first compound 3 µM): 0.76%
- viability, T/C [23]: 2.18%
- viability, T/C [24]: 4.18%
- viability, T/C [25]: 3.49%
- viability, T/C [26]: 1.2%
- viability, T/C (second compound 3.16 µM, first compound 0.949 µM): 0.81%
- viability, T/C (second compound 3.16 µM, first compound 3 µM): 1.01%
- viability, T/C [27]: 2.14%
- viability, T/C [28]: 1.92%
- viability, T/C [29]: 1.56%
- viability, T/C [30]: 1.44%
- viability, T/C (second compound 10 µM, first compound 0.949 µM): 2%
- viability, T/C (second compound 10 µM, first compound 3 µM): 0.3%
